According to US10196436B2, “Inhibitors of the fibroblast growth factor receptor” (BLUEPRINT MEDICINES CORPORATION, priority 2012, dated 2019):

Columns and labels:
[1] = biological target: wild type FGFR-4 (Homo sapiens (Human), UniProt P22455); assay: FGFR-4 wild type assay at Km (Caliper electrophoretic mobility shift); assay type: biochemical; conditions: for IC50: 400 uM ATP, 90 minutes, 25 C, read-out: FGFR4 IC50; for Ratio FGFR1/FGFR4: [IC50 for FGFR1]/[IC50 for FGFR4]
Experimental: (§1) In order to assess the activity of chemical compounds against the relevant kinase of interest, the Caliper LifeSciences electrophoretic mobility shift technology platform is utilized. Fluorescently labeled substrate peptide is incubated in the presence dosed levels of compounds, a set concentration of kinase and of ATP, so that a reflective proportion of the peptide is phosphorylated. At the end of the reaction, the mix of phosphorylated (product) and non-phosphorylated (substrate) peptides are passed through the microfluidic system of the Caliper LabChip® EZ Reader II, under an applied potential difference. The presence of the phosphate group on the product peptide provides a difference in mass and charge between the product peptide and the substrate peptide, resulting in a separation of the substrate and product pools in the sample. As the pools pass the LEDS within the instrument, these pools are detected and resolved as separate peaks. The ratio between these peaks therefore reflects the activity of the chemical matter at that concentration in that well, under those conditions.
(§2) The reaction was stopped by the addition of 70 ul of Stop buffer (100 mM HEPES pH 7.5, 0.015% Brij 35, 35 mM EDTA and 0.2% of Coating Reagent 3 (Caliper Lifesciences)). The plate was then read on a Caliper LabChip® EZ Reader II (protocol settings: −1.9 psi, upstream voltage −700, downstream voltage −3000, post sample sip 35 s).

[2] = biological target: wild type FGFR-1 (Homo sapiens (Human), UniProt P11362); assay: FGFR-1 wild type assay at Km (Caliper electrophoretic mobility shift); assay type: biochemical; conditions: 400 uM ATP, 90 minutes, 25 C; read-out: FGFR1 IC50
wild type FGFR-1, sequence (P11362 22-822): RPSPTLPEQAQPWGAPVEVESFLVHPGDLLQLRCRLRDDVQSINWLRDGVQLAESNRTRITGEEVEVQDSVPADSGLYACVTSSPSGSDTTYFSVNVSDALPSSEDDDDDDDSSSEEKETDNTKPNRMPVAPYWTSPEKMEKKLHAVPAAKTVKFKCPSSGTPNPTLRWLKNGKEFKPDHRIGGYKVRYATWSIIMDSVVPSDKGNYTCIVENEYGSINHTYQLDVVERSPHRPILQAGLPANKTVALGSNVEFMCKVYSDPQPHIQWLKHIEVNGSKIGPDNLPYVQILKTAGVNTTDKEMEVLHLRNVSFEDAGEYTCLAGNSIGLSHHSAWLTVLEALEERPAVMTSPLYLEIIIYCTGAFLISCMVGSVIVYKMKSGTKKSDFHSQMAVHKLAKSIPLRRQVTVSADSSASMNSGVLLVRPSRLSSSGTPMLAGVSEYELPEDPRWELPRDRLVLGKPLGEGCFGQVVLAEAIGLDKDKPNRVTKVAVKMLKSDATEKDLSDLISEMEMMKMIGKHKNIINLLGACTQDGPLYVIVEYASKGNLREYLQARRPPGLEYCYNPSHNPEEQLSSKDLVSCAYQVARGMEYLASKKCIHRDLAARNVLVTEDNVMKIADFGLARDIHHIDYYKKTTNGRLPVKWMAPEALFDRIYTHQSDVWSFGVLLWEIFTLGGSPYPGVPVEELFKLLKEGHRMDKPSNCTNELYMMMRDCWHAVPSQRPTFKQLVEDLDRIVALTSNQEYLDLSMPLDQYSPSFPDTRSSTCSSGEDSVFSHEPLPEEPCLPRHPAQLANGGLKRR
Experimental: as §1
as §2, with “EZReader 2” for “LabChip® EZ Reader II”

[3] = test system: MDA-MB-453 cells, which harbor an activating FGFR4 mutation; assay: Cellular potency: phosphorylation of Erk in MDA-MB-453 cells (immunoblot); conditions: Homo sapiens, MDA-MB-453, 1 h, read-out: Potency (pErk IC50)
Experimental: Dose response in MDA-MB-453 cells, which harbor an activating FGFR4 mutation, was measured as follows. Briefly, MDA-MB-453 cells were seeded at 2.5×10^6 cells/6 well, and starved overnight. Compounds were added at varying concentrations (3000, 1000, 300, 100, and 30 nM) for 1 hour. Samples were collected and lysed for immunoblot analysis. The phosphorylation of Erk was measured and the average pErk value of three replicates was plotted with three parameter dose-response (inhibition) curve fit using Prism GraphPad software, which was used to determine the IC50 values.

wild type FGFR-4, sequence (P22455 22-802): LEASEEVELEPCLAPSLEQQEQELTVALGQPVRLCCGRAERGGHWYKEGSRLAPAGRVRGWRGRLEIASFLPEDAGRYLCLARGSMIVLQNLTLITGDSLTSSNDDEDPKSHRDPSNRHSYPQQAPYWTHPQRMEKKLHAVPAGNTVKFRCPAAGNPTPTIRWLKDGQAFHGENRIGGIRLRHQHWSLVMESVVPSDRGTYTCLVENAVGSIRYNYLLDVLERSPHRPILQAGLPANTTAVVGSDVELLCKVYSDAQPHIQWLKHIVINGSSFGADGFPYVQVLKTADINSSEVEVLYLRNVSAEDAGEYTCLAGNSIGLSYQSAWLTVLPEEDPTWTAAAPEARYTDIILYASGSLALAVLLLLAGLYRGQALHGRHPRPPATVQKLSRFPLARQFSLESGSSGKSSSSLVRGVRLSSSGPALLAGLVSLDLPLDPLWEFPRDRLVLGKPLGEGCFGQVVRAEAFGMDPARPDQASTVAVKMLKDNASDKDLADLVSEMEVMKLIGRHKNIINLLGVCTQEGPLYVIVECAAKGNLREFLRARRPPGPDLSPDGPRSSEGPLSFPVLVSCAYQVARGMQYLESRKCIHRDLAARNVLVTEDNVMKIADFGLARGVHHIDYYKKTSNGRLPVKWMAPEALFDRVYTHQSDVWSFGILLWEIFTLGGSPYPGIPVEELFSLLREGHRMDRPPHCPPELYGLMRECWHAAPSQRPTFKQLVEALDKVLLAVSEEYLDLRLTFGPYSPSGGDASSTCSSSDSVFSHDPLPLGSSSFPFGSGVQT

For `C=CC(=O)N(C)c1ncc2cc(-c3cc(OC)cc(OC)c3)ccc2n1` [COMPOUND 1], the IC50 [1] was 100 to 1000 nM, the “Ratio FGFR1/FGFR4” value [1] was “C (the ratio is ≥100 and <200)” and the IC50 [2] was greater than 1000 nM.

With `C=CC(=O)N(C)c1ncc2cc(-c3c(Cl)cccc3Cl)ccc2n1` [COMPOUND 2] the “Ratio FGFR1/FGFR4” value [1] was “D (the ratio is ≥50 and <100)” and the IC50 [2] was greater than 1000 nM.

`C=CC(=O)N(C)c1ncc2c(n1)N(C)C(=O)N(c1cc(OC)cc(OC)c1)C2` [COMPOUND 5] was tested, and the “Ratio FGFR1/FGFR4” value [1] was “A (the ratio is >500)” and the IC50 [2] was greater than 1000 nM.

`C=CC(=O)Nc1cccc(C)c1Nc1ncc(C#Cc2cc(OC)cc(OC)c2)cn1` [COMPOUND 6, N-(2-((5-((3,5-dimethoxyphenyl)ethynyl)pyrimidin-2-yl)amino)-3-methylphenyl) acrylamide] gave an IC50 [2] greater than 1000 nM.

In the case of `C=CC(=O)N(C)c1ncc2cc(-c3c(Cl)c(OC)cc(OC)c3Cl)ccc2n1` [COMPOUND 7], the IC50 [1] is reported as less than 10 nM, the “Ratio FGFR1/FGFR4” value [1] is reported as “A (the ratio is >500)” and the IC50 [2] is reported as greater than 1000 nM.

For `C=CC(=O)N(C)c1ncc2cc(-c3c(Cl)c(OC)cc(OC)c3Cl)cnc2n1` [COMPOUND 8], the IC50 [1] was less than 10 nM and the “Ratio FGFR1/FGFR4” value [1] was “E (the ratio is >10 and <50)”.

`C=CC(=O)Nc1cccc(C)c1Nc1ncc2cc(-c3cc(C(N)=O)ccc3F)ccc2n1` [COMPOUND 9] was tested, and the “Ratio FGFR1/FGFR4” value [1] was “D (the ratio is ≥50 and <100)” and the IC50 [2] was greater than 1000 nM.

For `C=CC(=O)Nc1cccc(C)c1Nc1ncc2cc(-c3cc(OC)cc(OC)c3)cnc2n1` [COMPOUND 10, N-(2-((6-(3,5-dimethoxyphenyl)pyrido[2,3-d]pyrimidin-2-yl)amino)-3-methylphenyl)acrylamide], the IC50 [1] was greater than 1000 nM, the “Ratio FGFR1/FGFR4” value [1] was “E (the ratio is >10 and <50)” and the IC50 [2] was greater than 1000 nM.

`C=CC(=O)Nc1ccccc1Nc1nccc(N2CCCC(NS(=O)(=O)CCC)C2)n1` (stereo not shown) [COMPOUND 11, N-(2-((4-(3-(propylsulfonamido)piperidin-1-yl)pyrimidin-2-yl)amino)phenyl)acrylamide] gave an IC50 [2] greater than 1000 nM.

With `C=CC(=O)N(C)c1ncc2cc(-c3c(Cl)c(OC)cc(OC)c3Cl)c(=O)n(C)c2n1` [COMPOUND 12] the IC50 [1] was less than 10 nM and the “Ratio FGFR1/FGFR4” value [1] was “D (the ratio is ≥50 and <100)”.

With `C=CC(=O)Nc1cccc(C)c1Nc1ncc2cc(-c3c(Cl)cccc3Cl)ccc2n1` [COMPOUND 13] the “Ratio FGFR1/FGFR4” value [1] was “D (the ratio is ≥50 and <100)” and the IC50 [2] was greater than 1000 nM.

`C=CC(=O)N(C)c1ncc2c(n1)N(C)C(=O)N(c1c(Cl)c(OC)cc(OC)c1Cl)C2` [COMPOUND 14] was tested, and the “Ratio FGFR1/FGFR4” value [1] was “F (the ratio of [IC50 for FGFR1]/[IC50 for FGFR4] is less than 10)”.

In the case of `C=CC(=O)Nc1ccccc1Nc1cc2c(cn1)cc(-c1cc(OC)cc(OC)c1)c(=O)n2C` [COMPOUND 15], the “Ratio FGFR1/FGFR4” value [1] is reported as “B (the ratio is ≥200 and <500)” and the IC50 [2] is reported as greater than 1000 nM.

Compound `C=CC(=O)Nc1ccccc1Nc1ncc2cc(-c3cc(OC)cc(OC)c3)c(=O)n(C)c2n1` [COMPOUND 16] has an IC50 [2] greater than 1000 nM.

`C=CC(=O)Nc1cccc(C)c1Nc1ncc2cc(-c3c(Cl)ccc(OC)c3F)ccc2n1` [COMPOUND 17A] was tested, and the “Ratio FGFR1/FGFR4” value [1] was “E (the ratio is >10 and <50)” and the IC50 [2] was greater than 1000 nM.

`C=CC(=O)Nc1cccc(Cl)c1Nc1ncc2cc(-c3cc(C(N)=O)ccc3C)ccc2n1` [COMPOUND 17] was tested, and the “Ratio FGFR1/FGFR4” value [1] was “B (the ratio is ≥200 and <500)” and the IC50 [2] was greater than 1000 nM.

Compound `C=CC(=O)Nc1cccc(C)c1Nc1ncc2cc(-c3cc(OC)cc(OC)c3)c(=O)n(C)c2n1` [COMPOUND 19] has an IC50 [2] greater than 1000 nM.

`C=CC(=O)Nc1ccccc1-c1ccn2c(-c3cccc(NC(=O)NCC(F)(F)F)c3)cnc2c1` [COMPOUND 21, N-(2-(3-(3-(3-(2,2,2-trifluoroethyl)ureido)phenyl)imidazo[1,2-a]pyridin-7-yl)phenyl)acrylamide] gave an IC50 [2] greater than 1000 nM.

With `C=CC(=O)Nc1cccc(C)c1Nc1ncc2cc(-c3c(Cl)cccc3Cl)c(=O)n(C)c2n1` [COMPOUND 22] the “Ratio FGFR1/FGFR4” value [1] was “B (the ratio is ≥200 and <500)” and the IC50 [2] was greater than 1000 nM.

With `C=CC(=O)Nc1ccccc1Nc1ncc(C)c(N2CCN(C(=O)Nc3ccc(C#N)cc3)CC2)n1` [COMPOUND 23] the IC50 [1] was 100 to 1000 nM, the “Ratio FGFR1/FGFR4” value [1] was “A (the ratio is >500)” and the IC50 [2] was greater than 1000 nM.

In the case of `C=CC(=O)Nc1cccc(C)c1Nc1ncc(C#Cc2c(Cl)c(OC)cc(OC)c2Cl)cn1` [COMPOUND 24, N-(2-((5-((2,6-dichloro-3,5-dimethoxyphenyl)ethynyl)pyrimidin-2-yl)amino)-3-methylphenyl)acrylamide], the IC50 [2] is reported as greater than 1000 nM.

With `C=CC(=O)Nc1cccc(C)c1Oc1ncc2cc(-c3c(Cl)c(OC)cc(OC)c3Cl)ccc2n1` [COMPOUND 25A] the “Ratio FGFR1/FGFR4” value [1] was “D (the ratio is ≥50 and <100)” and the IC50 [2] was greater than 1000 nM.

For `C=CC(=O)Nc1cc(C)cc(C)c1Nc1ncc2cc(-c3c(Cl)c(OC)cc(OC)c3Cl)ccc2n1` [COMPOUND 28], the IC50 [2] was greater than 1000 nM.

For `C=CC(=O)Nc1cc(F)cc(C)c1Nc1ncc2cc(-c3c(Cl)c(OC)cc(OC)c3Cl)ccc2n1` [COMPOUND 32], the IC50 [1] was less than 10 nM, the “Ratio FGFR1/FGFR4” value [1] was “C (the ratio is ≥100 and <200)” and the IC50 [2] was greater than 1000 nM.

For `C=CC(=O)Nc1cc(F)cc(F)c1Nc1ncc2cc(-c3c(Cl)c(OC)cc(OC)c3Cl)ccc2n1` [COMPOUND 36], the “Ratio FGFR1/FGFR4” value [1] was “B (the ratio is ≥200 and <500)” and the IC50 [2] was greater than 1000 nM.

With `C=CC(=O)Nc1ccc(F)c(F)c1Nc1ncc2cc(-c3c(Cl)c(OC)cc(OC)c3Cl)ccc2n1` [COMPOUND 37] the IC50 [1] was less than 10 nM and the “Ratio FGFR1/FGFR4” value [1] was “C (the ratio is ≥100 and <200)”.

`C=CC(=O)Nc1ccccc1Nc1ncc2cc(-c3c(Cl)c(OC)cc(OC)c3Cl)c(=O)n(C)c2c1C` [COMPOUND 40, N-(2-((3-(2,6-dichloro-3,5-dimethoxyphenyl)-1,8-dimethyl-2-oxo-1,2-dihydro-1,6-naphthyridin-7-yl)amino)phenyl)acrylamide] was tested, and the IC50 [2] was greater than 1000 nM.

`C=CC(=O)Nc1cccc(C)c1Nc1ncc2cc(-c3c(Cl)c(OC)cc(OC)c3Cl)c(OC)cc2n1` [COMPOUND 42, N-(2-((6-(2,6-dichloro-3,5-dimethoxyphenyl)-7-methoxyquinazolin-2-yl)amino)-3-methylphenyl)acrylamide] was tested, and the IC50 [1] was less than 10 nM and the “Ratio FGFR1/FGFR4” value [1] was “F (the ratio of [IC50 for FGFR1]/[IC50 for FGFR4] is less than 10)”.

Work on `C=CC(=O)Nc1cccc(C)c1Nc1ncc2cc(-c3c(Cl)c(OC)cc(OC)c3Cl)c(=O)n(C)c2n1` [COMPOUND 43, N-(2-((6-(2,6-dichloro-3,5-dimethoxyphenyl)-8-methyl-7-oxo-7,8-dihydropyrido[2,3-d]pyrimidin-2-yl)amino)-3-methylphenyl)acrylamide] yielded an IC50 [3] of less than 1 nM.

For `C=CC(=O)Nc1ccccc1Nc1cc2nc(NC(=O)NC(C)(C)C)c(-c3cc(OC)cc(OC)c3)cc2cn1` [COMPOUND 44], the “Ratio FGFR1/FGFR4” value [1] was “E (the ratio is >10 and <50)” and the IC50 [2] was greater than 1000 nM.

For `C=CC(=O)Nc1cccc(F)c1Nc1ncc2cc(-c3c(Cl)c(OC)cc(OC)c3Cl)cc(OC)c2n1` [COMPOUND 47], the IC50 [1] was less than 10 nM and the “Ratio FGFR1/FGFR4” value [1] was “B (the ratio is ≥200 and <500)”.

In the case of `C=CC(=O)Nc1cccc(C)c1Nc1ncc2c(n1)N(C)C(=O)N(c1c(Cl)c(OC)cc(OC)c1Cl)C2` [COMPOUND 48, N-(2-((6-(2,6-dichloro-3,5-dimethoxyphenyl)-8-methyl-7-oxo-5,6,7,8-tetrahydropyrimido[4,5-d]pyrimidin-2-yl)amino)-3-methylphenyl)acrylamide], the IC50 [1] is reported as less than 10 nM and the “Ratio FGFR1/FGFR4” value [1] is reported as “E (the ratio is >10 and <50)”.

`C=CS(=O)(=O)Nc1cccc(C)c1Nc1ncc2cc(-c3c(Cl)c(OC)cc(OC)c3Cl)ccc2n1` [COMPOUND 49A] was tested, and the “Ratio FGFR1/FGFR4” value [1] was “E (the ratio is >10 and <50)”.

In the case of `C=CC(=O)Nc1cc(Cl)cc(C)c1Nc1ncc2cc(-c3c(Cl)c(OC)cc(OC)c3Cl)ccc2n1` [COMPOUND 49], the “Ratio FGFR1/FGFR4” value [1] is reported as “A (the ratio is >500)” and the IC50 [2] is reported as greater than 1000 nM.

`C=CC(=O)Nc1ccccc1Nc1ncc(Cl)c(N2CCN(C(=O)Nc3cccc(C(F)(F)F)c3)CC2)n1` [COMPOUND 50, 4-(2-((2-acrylamidophenyl)amino)-5-chloropyrimidin-4-yl)-N-(3-(trifluoromethyl)phenyl)piperazine-1-carboxamide] showed an IC50 [2] greater than 1000 nM.

With `C=CC(=O)Nc1cccc(F)c1Nc1ncc2cc(-c3c(Cl)c(OC)cc(OC)c3Cl)ccc2n1` [COMPOUND 51] the IC50 [1] was 10 to 100 nM, the “Ratio FGFR1/FGFR4” value [1] was “F (the ratio of [IC50 for FGFR1]/[IC50 for FGFR4] is less than 10)” and the IC50 [2] was greater than 1000 nM.

`C=CC(=O)Nc1cc(C(=O)NC2CCN(C)CC2)ccc1Nc1ncc(C)c(N2CCN(C(=O)Nc3ccc(C#N)cc3)CC2)n1` [COMPOUND 54, 4-(2-((2-acrylamido-4-((1-methylpiperidin-4-yl)carbamoyl)phenyl)amino)-5-methylpyrimidin-4-yl)-N-(4-cyanophenyl)piperazine-1-carboxamide] gave an IC50 [2] greater than 1000 nM.
